# From PubChem BioAssay (NCI)
# “And” between values parts separate entries of the source, which are not always exact repeats. Equal entries are not always repeated.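 Step 1: Grow cells in 96-well plates. Step 2: Expose to compound for 48 hours at 5 concentrations. Step 3: Interpolate endpoints linearly; if unreached, use highest concentration. GI50 = concentration required for 50% inhibition of growth. TGI: concentration producing complete growth inhibition.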
# Columns and labels:
# Experiment in all cases: NCI anticancer screen, dose series, 48 h
# A549 NSCLC = tested on: A549 NSCLC
# SK-MEL-2 melanoma = tested on: SK-MEL-2 melanoma
# RXF 393 renal = tested on: RXF 393 renal
# KM12 colon = tested on: KM12 colon
# COLO 205 colon = tested on: COLO 205 colon
# SNB-75 CNS = tested on: SNB-75 CNS
# HOP-92 NSCLC = tested on: HOP-92 NSCLC
# BT-549 breast = tested on: BT-549 breast
# SK-MEL-5 melanoma = tested on: SK-MEL-5 melanoma
# SR leukemia = tested on: SR leukemia
SMILES,TGI (A549 NSCLC) [µM],TGI (SK-MEL-2 melanoma) [µM],TGI (RXF 393 renal) [µM],TGI (KM12 colon) [µM],TGI (COLO 205 colon) [µM],TGI (SNB-75 CNS),TGI (HOP-92 NSCLC),TGI (BT-549 breast) [µM],TGI (SK-MEL-5 melanoma),TGI (SR leukemia),GI50 (KM12 colon) [µM],GI50 (SK-MEL-2 melanoma) [µM],GI50 (RXF 393 renal) [µM],GI50 (SNB-75 CNS)
CNCC(SC)c1ccc(O)c(O)c1 (stereo not drawn),> 100,> 100,> 100,> 100,32.9,> 100 µM,39.3 µM,31,> 100 µM,–,–,–,–,–
CC12CC(c3ccccc3O1)C(C(=O)Nc1nccs1)C(=O)N2 (stereo not drawn),> 100,> 100,> 100,> 100,> 100,> 100 µM,> 100 µM,> 100,> 100 µM,–,–,–,–,–
CN1COCN=C1NC#N,> 100,> 100,–,> 100,> 100,> 100 µM,–,–,–,–,–,–,–,–
c1ccc(C2N=C(c3ccccn3)C(c3ccccn3)=NC2c2ccccc2)cc1 (stereo not drawn),> 100,> 100,> 100,> 100,> 100,–,> 100 µM,–,> 100 µM,–,–,–,–,–
CC(=O)c1c(-c2ccco2)c(C#N)c(=S)n(C2OC(CO)C(O)C(O)C2O)c1C (stereo not drawn),> 100,–,> 100,> 100,> 100,> 100 µM,–,> 100,> 100 µM,> 100 µM,–,–,–,–
C#CC(O)/C=C/C(O)CCCC(O)CC#CC(O)C#CCCCCC(O)/C=C/CCCC(=O)CCCCCCCCCCCCCCCC(O)C(O)C#CC(=O)O (stereo not drawn),> 25,> 25,> 25,> 25,> 25,> 25 µM,> 25 µM,–,> 25 µM,> 25 µM,–,–,–,–
COC(=O)c1c(CC(=O)OC(C)C)cc2n(c1=O)Cc1c-2nc2ccccc2c1OC,> 100,> 100,99.6,–,> 100,> 100 µM,> 100 µM,–,> 100 µM,> 100 µM,–,–,–,–
O=C1OC2(CCCCC2)C(Oc2ccc(Cl)cc2)=C1F,> 100,61.8,> 100,> 100,> 100,> 100 µM,82.5 µM,–,33.3 µM,> 100 µM,–,–,–,–
COc1ccc(C2C3=C(COC3=O)Oc3cc4c(cc32)OCO4)cc1OC (stereo not drawn),> 100,> 100,5.7,> 71.7,18.1,> 100 µM,> 100 µM,–,> 100 µM,–,–,–,–,–
CN1CCC(O)(OC(=O)C(c2ccccc2)C2(O)CCCC2)CC1 (stereo not drawn),> 100,> 100,> 100,> 100,> 100,> 100 µM,> 100 µM,–,> 100 µM,> 100 µM,–,–,–,–
Cc1ccc(N=Nc2c(O)ccc3ccccc23)c(C)c1,> 100,> 100,> 100,> 100,> 100,> 100 µM,> 100 µM,> 100,> 100 µM,–,–,–,–,–
Cc1noc(-c2ccc(C(=O)O)[nH]2)c1Br,> 100,> 100,> 100,> 100,> 100,> 100 µM,84.3 µM,> 100,> 100 µM,–,–,–,–,–
NCCCNCCSP(=O)(O)O,> 750,> 700,> 750,> 750,> 657,> 750 µM,> 750 µM,–,> 750 µM,–,–,–,–,–
CSCSCC(CO)NC(=O)/C=C\c1c(C)[nH]c(=O)[nH]c1=O (stereo not drawn),375,136,249,156,78.9,118 µM,10.1 µM,–,105 µM,–,10.8,–,–,–
C=CCCCN(C(=O)c1ccccc1)c1ccc(C(=O)OC)o1,> 100,> 100,> 100,> 100,> 100,> 100 µM,> 100 µM,–,> 100 µM,–,–,–,–,–
CCOC(=O)C1=C(N2CCCC2)C(=O)C(C(=O)OCC)C1 (stereo not drawn),> 100,> 100,> 100,> 100,> 100,> 100 µM,> 100 µM,> 100,> 100 µM,–,–,–,–,–
CC(C)(C1=NC(C(C)(C)C)CO1)C1=N[C@@H](C(C)(C)C)CO1 (stereo partly drawn),> 100,> 100,> 100,> 100,> 100,> 100 µM,> 100 µM,–,> 100 µM,> 100 µM,–,–,–,–
Cc1c2cc[n+](C)cc2c(C)c2c1[nH]c1ccc(OCC(F)(F)F)cc12,> 100,> 100,> 100,> 44.8,–,2.62 µM and 0.833 µM,8.98 µM and > 28.5 µM,–,11.2 µM and 7.07 µM,23 µM and > 52.1 µM,–,5.9,> 100,0.837 µM and 0.271 µM
